Measurements as given in patent US8563551B2, “Method for preventing or treating a disease related to the glucocorticoid receptor” (Santen Pharmaceutical Co., Ltd., priority 2006, dated 2013).

Biological target: T1, Recombinant human GR (Homo sapiens, UniProt P04150)
T1 construct: purchased Invitrogen P2816
T1 sequence (P04150 1-777): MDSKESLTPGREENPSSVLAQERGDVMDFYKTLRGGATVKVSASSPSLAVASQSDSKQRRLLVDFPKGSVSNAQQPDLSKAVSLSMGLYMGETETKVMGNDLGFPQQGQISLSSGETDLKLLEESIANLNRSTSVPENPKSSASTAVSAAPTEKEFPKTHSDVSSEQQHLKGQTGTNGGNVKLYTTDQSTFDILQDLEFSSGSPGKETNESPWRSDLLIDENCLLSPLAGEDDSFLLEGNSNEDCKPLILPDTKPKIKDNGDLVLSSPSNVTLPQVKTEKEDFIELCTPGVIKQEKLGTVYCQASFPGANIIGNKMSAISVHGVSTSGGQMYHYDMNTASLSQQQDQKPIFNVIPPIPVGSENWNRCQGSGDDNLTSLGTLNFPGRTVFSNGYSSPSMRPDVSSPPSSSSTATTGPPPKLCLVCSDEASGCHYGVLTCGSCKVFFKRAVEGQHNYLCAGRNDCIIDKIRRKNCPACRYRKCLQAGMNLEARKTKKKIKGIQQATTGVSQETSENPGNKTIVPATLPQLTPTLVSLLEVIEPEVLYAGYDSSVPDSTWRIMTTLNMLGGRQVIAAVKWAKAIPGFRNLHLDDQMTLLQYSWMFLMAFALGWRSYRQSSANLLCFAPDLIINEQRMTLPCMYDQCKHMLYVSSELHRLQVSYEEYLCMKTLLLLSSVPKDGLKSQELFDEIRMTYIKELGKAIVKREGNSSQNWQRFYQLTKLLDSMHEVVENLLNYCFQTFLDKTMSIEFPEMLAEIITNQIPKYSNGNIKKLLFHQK
Assay: GR competitor assay (receptor competitor assay by fluorescence polarization, Invitrogen kit P2816)
Details: 20 μM test compound solution (10 μL per well plus 5 μL 4×GS1 and 5 μL 4×GR); relative to 2 mM dexamethasone positive control; ratios of 100% or more are indicated by 100%; read-out: GR Binding ratio (%)
Experimental: In order to evaluate a binding activity to GR, a receptor competitor assay was carried out by a fluorescence polarization method. In the assay, a GR competitor assay kit (manufactured by Invitrogen, cat No. P2816) was used, and a procedure was carried out according to the protocol attached to the kit. Hereinafter, the specific method will be described.
GR screening buffer: A buffer containing 10 mM potassium phosphate (pH 7.4), 20 mM sodium molybdate (Na2MoO4), 0.1 mM ethylene diamine tetraacetic acid (EDTA), 5 mM dithiothreitol (DTT), 0.1 mM stabilizing peptide and 2% dimethylsulfoxide was prepared.
4×GS1 solution: Fluormone™ GS1, which is a fluorescent glucocorticoid ligand, was diluted with GR screening buffer, whereby a 4 nM solution was prepared.
4×GR solution: Recombinant human GR was diluted with GR screening buffer, whereby a 16 nM solution was prepared.
After a test compound was dissolved in dimethylsulfoxide, the resulting solution was diluted with GR screening buffer, whereby a 20 μM test compound solution was prepared.
1) The test compound solution was added in an amount of 10 μL into each well of a 384-well plate, and then, 4×GS1 solution and 4×GR solution were added in an amount of 5 μL into each well, respectively.
2) The plate was incubated in a dark place at room temperature for 2 to 4 hours.
3) By using a multimode plate reader, Analyst™ HT (manufactured by LJL Biosystems), fluorescence polarization of each well was measured. As the blank, a well containing GR screening buffer in place of the test compound and 4×GS1 solution was used.
4) The same procedure as that in the above 1) to 3) was carried out except that GR screening buffer was used in place of the test compound solution, and the obtained result was taken as the negative control.
5) The same procedure as that in the above 1) to 3) was carried out except that 2 mM dexamethasone was used in place of the test compound solution, and the obtained result was taken as the positive control.
A GR binding ratio (%) was calculated from the following equation. GR binding ratio(%)=100×[1−(fluorescence polarization of test compound solution−fluorescence polarization of positive control solution)/(fluorescence polarization of negative control solution fluorescence polarization of positive control solution)] (Test Results and Discussion)

SMILES | inhibition at 20 µM (stock)
COc1cc(OC(=O)c2cccc(C(C)=O)c2)ccc1-c1ccc2c(c1COC(=O)c1ccc(C)s1)C(C)=CC(C)(C)N2 [Compound 1-27, 6-[4-(3-Acetylbenzoyloxy)-2-methoxyphenyl]-5-(5-methylthiophen-2-ylcarbonyloxymethyl)-2,2,4-trimethyl-1,2-dihydroquinoline] | 89%
COc1cc(OC(=O)c2cccs2)ccc1-c1ccc2c(c1COC(=O)c1ccc(C)s1)C(C)=CC(C)(C)N2 [Compound 1-29, 6-[2-Methoxy-4-(thiophen-2-ylcarbonyloxy)phenyl]-5-(5-methylthiophen-2-ylcarbonyloxymethyl)-2,2,4-trimethyl-1,2-dihydroquinoline] | 96%
COc1cc(OC(=O)c2cccnc2C)ccc1-c1ccc2c(c1COC(=O)c1ccc(C)s1)C(C)=CC(C)(C)N2 [Compound 1-30, 6-[2-Methoxy-4-(2-methylpyridin-3-ylcarbonyloxy)phenyl]-5-(5-methylthiophen-2-ylcarbonyloxymethyl)-2,2,4-trimethyl-1,2-dihydroquinoline] | 96%
COc1cc(OC(=O)c2sccc2Cl)ccc1-c1ccc2c(c1COC(=O)c1ccc(C)s1)C(C)=CC(C)(C)N2 [Compound 1-31, 6-[4-(3-Chlorothiophen-2-ylcarbonyloxy)-2-methoxyphenyl]-5-(5-methylthiophen-2-ylcarbonyloxymethyl)-2,2,4-trimethyl-1,2-dihydroquinoline] | 88%
COc1cc(OC(=O)c2cscn2)ccc1-c1ccc2c(c1COC(=O)c1ccc(C)s1)C(C)=CC(C)(C)N2 [Compound 1-32, 6-[2-Methoxy-4-(thiazol-4-ylcarbonyloxy)phenyl]-5-(5-methylthiophen-2-ylcarbonyloxymethyl)-2,2,4-trimethyl-1,2-dihydroquinoline] | 99%
COc1cc(OC(=O)c2ccncc2)ccc1-c1ccc2c(c1COC(=O)c1ccc(C)s1)C(C)=CC(C)(C)N2 [Compound 1-33, 6-[2-Methoxy-4-(pyridin-4-ylcarbonyloxy)phenyl]-5-(5-methylthiophen-2-ylcarbonyloxymethyl)-2,2,4-trimethyl-1,2-dihydroquinoline] | 96%
COc1ccc(C(=O)OCc2c(-c3ccc(OC(=O)c4cccnc4)cc3OC)ccc3c2C(C)=CC(C)(C)N3)cc1 [Compound 1-34, 5-(4-Methoxybenzoyloxymethyl)-6-[2-methoxy-4-(pyridin-3-ylcarbonyloxy)phenyl]-2,2,4-trimethyl-1,2-dihydroquinoline] | 95%
COc1ccc(C(=O)OCc2c(-c3ccc(OC(=O)c4ccccc4Cl)cc3OC)ccc3c2C(C)=CC(C)(C)N3)cc1 [Compound 1-35, 6-[4-(2-Chlorobenzoyloxy)-2-methoxyphenyl]-5-(4-methoxybenzoyloxymethyl)-2,2,4-trimethyl-1,2-dihydroquinoline] | 100%
COc1ccc(C(=O)OCc2c(-c3ccc(OC(=O)c4ccco4)cc3OC)ccc3c2C(C)=CC(C)(C)N3)cc1 [Compound 1-36, 6-[4-(Furan-2-ylcarbonyloxy)-2-methoxyphenyl]-5-(4-methoxybenzoyloxymethyl)-2,2,4-trimethyl-1,2-dihydroquinoline] | 100%
COc1cc(OC(=O)c2cccnc2)ccc1-c1ccc2c(c1COC(=O)c1ccc(Br)s1)C(C)=CC(C)(C)N2 [Compound 1-37, 5-(5-Bromothiophen-2-ylcarbonyloxymethyl)-6-[2-methoxy-4-(pyridin-3-ylcarbonyloxy)phenyl]-2,2,4-trimethyl-1,2-dihydroquinoline] | 100%
COc1cc(OC(=O)c2ccco2)ccc1-c1ccc2c(c1COC(=O)c1ccc(Br)s1)C(C)=CC(C)(C)N2 [Compound 1-39, 5-(5-Bromothiophen-2-ylcarbonyloxymethyl)-6-[4-(furan-2-ylcarbonyloxy)-2-methoxyphenyl]-2,2,4-trimethyl-1,2-dihydroquinoline] | 100%
COc1cc(OC(=O)C(C)C)ccc1-c1ccc2c(c1COC(=O)c1ccc(C)s1)C(C)=CC(C)(C)N2 [Compound 1-43, 6-(4-Isopropylcarbonyloxy-2-methoxyphenyl)-5-(5-methylthiophen-2-ylcarbonyloxymethyl)-2,2,4-trimethyl-1,2-dihydroquinoline] | 100%
COc1cc(OC(=O)c2ccccc2OC(C)=O)ccc1-c1ccc2c(c1COC(=O)c1ccc(C)s1)C(C)=CC(C)(C)N2 [Compound 1-44, 6-[4-(2-Acetoxybenzoyloxy)-2-methoxyphenyl]-5-(5-methylthiophen-2-ylcarbonyloxymethyl)-2,2,4-trimethyl-1,2-dihydroquinoline] | 96%

Second part, the compound after the results:

inhibition at 20 µM (stock) | SMILES
100% | COc1cc(OC(=O)c2cccnc2OC)ccc1-c1ccc2c(c1COC(=O)c1ccc(C)s1)C(C)=CC(C)(C)N2 [Compound 1-45, 6-[2-Methoxy-4-(2-methoxypyridin-3-ylcarbonyloxy)phenyl]-5-(5-methylthiophen-2-ylcarbonyloxymethyl)-2,2,4-trimethyl-1,2-dihydroquinoline]
99% | COc1cc(OC(=O)c2cccc(C)c2)ccc1-c1ccc2c(c1COC(=O)c1ccc(C)s1)C(C)=CC(C)(C)N2 [Compound 1-46, 6-[2-Methoxy-4-(3-methylbenzoyloxy)phenyl]-5-(5-methylthiophen-2-ylcarbonyloxymethyl)-2,2,4-trimethyl-1,2-dihydroquinoline]
96% | COc1cc(OC(=O)c2ccc(C)cc2)ccc1-c1ccc2c(c1COC(=O)c1ccc(C)s1)C(C)=CC(C)(C)N2 [Compound 1-47, 6-[2-Methoxy-4-(4-methylbenzoyloxy)phenyl]-5-(5-methylthiophen-2-ylcarbonyloxymethyl)-2,2,4-trimethyl-1,2-dihydroquinoline]
96% | COc1cc(OC(=O)c2ccc(F)cc2)ccc1-c1ccc2c(c1COC(=O)c1ccc(C)s1)C(C)=CC(C)(C)N2 [Compound 1-48, 6-[4-(4-Fluorobenzoyloxy)-2-methoxyphenyl]-5-(5-methylthiophen-2-ylcarbonyloxymethyl)-2,2,4-trimethyl-1,2-dihydroquinoline]
98% | COc1cc(OC(=O)c2ccccc2[N+](=O)[O-])ccc1-c1ccc2c(c1COC(=O)c1ccc(C)s1)C(C)=CC(C)(C)N2 [Compound 1-49, 6-[2-Methoxy-4-(2-nitrobenzoyloxy)phenyl]-5-(5-methylthiophen-2-ylcarbonyloxymethyl)-2,2,4-trimethyl-1,2-dihydroquinoline]
90% | COc1cc(OC(=O)c2occc2C)ccc1-c1ccc2c(c1COC(=O)c1ccc(C)s1)C(C)=CC(C)(C)N2 [Compound 1-50, 6-[2-Methoxy-4-(3-methylfuran-2-ylcarbonyloxy)phenyl]-5-(5-methylthiophen-2-ylcarbonyloxymethyl)-2,2,4-trimethyl-1,2-dihydroquinoline]
97% | COc1cc(OS(=O)(=O)CCC(F)(F)F)ccc1-c1ccc2c(c1COC(=O)c1ccc(C)s1)C(C)=CC(C)(C)N2 [Compound 2-1, 6-[2-Methoxy-4-(3,3,3-trifluoropropylsulfonyloxy)phenyl]-5-(5-methylthiophen-2-ylcarbonyloxymethyl)-2,2,4-trimethyl-1,2-dihydroquinoline]
